According to US9598433B2, “Hepatitis C virus inhibitors” (BRISTOL-MYERS SQUIBB COMPANY, priority 2012, dated 2017):

Assays:
[1] = test system: HCV genotype 1b (Con1) replicon in HUH-7 cells; assay: HCV replicon luciferase reporter assay, genotype 1b; format: cell-based; conditions: Hepatitis C virus, 72 h, genotype 1b replicon, 3 days incubation, read-out: LE_1b (EC50, range)
From the text: (§1) An HCV replicon whole cell system was established as described by Lohmann V, Korner F, Koch J, Herian U, Theilmann L, Bartenschlager R., Science 285(5424):110-3 (1999) and modified to introduce a luciferase reporter, as first described by Krieger et al (Krieger N, Lohmann V, and Bartenschlager R, J. Virol. 75(10):4614-4624 (2001)). CDNA encoding a humanized form of the Renilla luciferase gene and a linker sequence fused directly to the 3′-end of the luciferase gene were introduced into the replicon construct using an Ascl restriction site located in core, directly upstream of the neomycin marker gene. The adaptive mutation at position 1179 (serine to isoleucine) was also introduced (Blight K J, Kolykhalov, A A, Rice, C M, Science 290(5498):1972-1974). A stable cell line constitutively expressing this HCV replicon construct was generated by first linearizing plasmid DNAs with ScaI. RNA transcripts were synthesized in vitro using the T7 MegaScript transcription kit (Ambion, Austin, Tex.) according to manufacturer's directions. In vitro transcripts of the cDNA were transfected into the human hepatoma cell line, HUH-7. […] Resulting cell lines were characterized for positive and negative strand RNA production and protein production over time.
(§2) HCV replicon luciferase assays were developed to monitor the inhibitory effects of compounds described in the disclosure on HCV genotypes 1a and 1b viral replication. HUH-7 cells, constitutively expressing the HCV replicon, were grown in Dulbecco's Modified Eagle Media (DMEM) (Gibco-BRL) containing 10% Fetal calf serum (FCS) (Sigma) and 1 mg/mL G418 (Gibco-BRL). Compounds were serially diluted 3 folds in DMSO for a twenty-point titration and subsequently transferred to sterile 384-well tissue-culture treated plates (Corning cat #3571). The plates were then seeded with 50 μL of cells at a density of 3.0×10^3 cells/well in DMEM containing 4% FCS (final DMSO concentration at 0.5%). After 3 days incubation at 37° C., cells were analyzed for Renilla Luciferase activity using the EnduRen as substrate (Promega cat #E6485). The EnduRen substrate was diluted in DMEM and then added to the plates to a final concentration of 7.5 μM. The plates were incubated for 2 hrs at 37° C. and then read immediately for 30 seconds with Viewlux Imager (PerkinElmer) using a luminescence program. To assess cytotoxicity of compounds, CC50 values were generated by multiplexing the EnduRen-containing plates with Cell Titer-Blue (Promega, cat # G8082). Cell-Titer Blue (3 μL) was added to each well and incubated for 8 hrs at 37° C. The fluorescence signal from each well was read, with an excitation wavelength at 525/10 nm and an emission wavelength of 598/10 nm, using the Viewlux Imager.
(§3) The EC50 values for compounds were calculated by using a four-parameter logistic equation: y=A+((B−A)/(1+((C/x)^D))), where A and B denotes minimal and maximal % inhibition, respectively, C is the EC50, D is the hill slope and x represents compound concentration.

[2] = test system: HCV genotype 1a (H77 strain) replicon in HUH-7 cells; assay: HCV replicon luciferase reporter assay, genotype 1a; format: cell-based; conditions: Hepatitis C virus, 72 h, genotype 1a replicon, 3 days incubation, read-out: LE_1a (EC50, range)
From the text: as §1
A stable HCV replicon luciferase reporter cell line representing the genotype 1a H77 strain (Yanagi M, Purcell R H, Emerson S U, et al. Transcripts from a single full-length cDNA clone of hepatitis C virus are infectious when directly transfected into the liver of a chimpanzee. Proc Natl Acad Sci USA 1997; 94(16):8738-8743) was generated as described previously for the genotype 1b(Con1) replicon luciferase cell line. The replicon construct was modified by introducing mutations were introduced into the genes encoding the NS3 helicase domain (proline replaced by leucine at position 1496) and NS5A (serine to isoleucine at position 2204) to improve replication in cell culture.
as §2, §3

Compound	EC50 [1]	EC50 [2]
CC[C@@H]1O[C@H](C)CC/C=C\[C@@H]2C[C@@]2(C(=O)NS(=O)(=O)C2(C)CC2)NC(=O)[C@@H]2C[C@@H](Oc3nc4cc(OC)ccc4nc3C(F)(F)F)CN2C(=O)[C@H]1NC(=O)OC(C)(C)C(F)(F)F [Compound 1015, 1,1,1-trifluoro-2-methylpropan-2-yl ((2R,6S,7S,9R,13aS,14aR,16aS,Z)-7-ethyl-2-((7-methoxy-3-(trifluoromethyl)quinoxalin-2-yl)oxy)-9-methyl-14a-(((1-methylcyclopropyl)sulfonyl)carbamoyl)-5,16-dioxo-2,3,5,6,7,9,10,11,13a,14,14a,15,16,16a-tetradecahydro-1H-cyclopropa[i]pyrrolo[1,2-e][1,5,8]oxadiazacyclopentadecin-6-yl)carbamate]	0.1 to 0.5 nM	0.1 to 0.5 nM
CC[C@@H]1O[C@H](C)CC/C=C\[C@@H]2C[C@@]2(C(=O)NS(=O)(=O)C2(C)CC2)NC(=O)[C@@H]2C[C@@H](Oc3nc4cc(OC)ccc4nc3C(F)(F)F)CN2C(=O)[C@H]1NC(=O)OC(C)(C)C(C)(F)F [Compound 1016, 3,3-difluoro-2-methylbutan-2-yl ((2R,6S,7S,9R,13aS,14aR,16aS,Z)-7-ethyl-2-((7-methoxy-3-(trifluoromethyl)quinoxalin-2-yl)oxy)-9-methyl-14a-(((1-methylcyclopropyl)sulfonyl)carbamoyl)-5,16-dioxo-2,3,5,6,7,9,10,11,13a,14,14a,15,16,16a-tetradecahydro-1H-cyclopropa[i]pyrrolo[1,2-e][1,5,8]oxadiazacyclopentadecin-6-yl)carbamate]	0.1 to 0.5 nM	0.1 to 0.5 nM
CC[C@@H]1O[C@H](C)CC/C=C\[C@@H]2C[C@@]2(C(=O)NS(=O)(=O)C2(C)CC2)NC(=O)[C@@H]2C[C@@H](Oc3nc4c(c5cc(OC)c(F)cc35)CCCO4)CN2C(=O)[C@H]1NC(=O)OC(C)(C)C(F)(F)F [Compound 1017, 1,1,1-trifluoro-2-methylpropan-2-yl ((2R,6S,7S,9R,13aS,14aR,16aS,Z)-7-ethyl-2-((8-fluoro-9-methoxy-2,3-dihydro-1H-pyrano[2,3-c]isoquinolin-6-yl)oxy)-9-methyl-14a-(((1-methylcyclopropyl)sulfonyl)carbamoyl)-5,16-dioxo-2,3,5,6,7,9,10,11,13a,14,14a,15,16,16a-tetradecahydro-1H-cyclopropa[i]pyrrolo[1,2-e][1,5,8]oxadiazacyclopentadecin-6-yl)carbamate]	0.51 to 1 nM	0.51 to 1 nM
CC[C@@H]1O[C@H](C)CC/C=C\[C@@H]2C[C@@]2(C(=O)NS(=O)(=O)C2(C)CC2)NC(=O)[C@@H]2C[C@@H](Oc3cc(OC)nc4cc(OC)c(F)cc34)CN2C(=O)[C@H]1NC(=O)OC(C)(C)C(F)(F)F [Compound 1018, 1,1,1-trifluoro-2-methylpropan-2-yl ((2R,6S,7S,9R,13aS,14aR,16aS,Z)-7-ethyl-2-((6-fluoro-2,7-dimethoxyquinolin-4-yl)oxy)-9-methyl-14a-(((1-methylcyclopropyl)sulfonyl)carbamoyl)-5,16-dioxo-2,3,5,6,7,9,10,11,13a,14,14a,15,16,16a-tetradecahydro-1H-cyclopropa[i]pyrrolo[1,2-e][1,5,8]oxadiazacyclopentadecin-6-yl)carbamate]	0.51 to 1 nM	1.01 to 5 nM
CC[C@@H]1O[C@H](C)CC/C=C\[C@@H]2C[C@@]2(C(=O)NS(=O)(=O)C2(C)CC2)NC(=O)[C@@H]2C[C@@H](Oc3cc(OC)nc4cc(OC)ccc34)CN2C(=O)[C@H]1NC(=O)OC(C)(C)C(F)(F)F [Compound 1019, 1,1,1-trifluoro-2-methylpropan-2-yl ((2R,6S,7S,9R,13aS,14aR,16aS,Z)-2-((2,7-dimethoxyquinolin-4-yl)oxy)-7-ethyl-9-methyl-14a-(((1-methylcyclopropyl)sulfonyl)carbamoyl)-5,16-dioxo-2,3,5,6,7,9,10,11,13a,14,14a,15,16,16a-tetradecahydro-1H-cyclopropa[i]pyrrolo[1,2-e][1,5,8]oxadiazacyclopentadecin-6-yl)carbamate]	0.1 to 0.5 nM	1.01 to 5 nM
CC[C@@H]1O[C@H](C)CC/C=C\[C@@H]2C[C@@]2(C(=O)NS(=O)(=O)C2(C)CC2)NC(=O)[C@@H]2C[C@@H](Oc3cc(OC)nc4cc(OC)ccc34)CN2C(=O)[C@H]1NC(=O)OC(C)(C)C(C)(F)F [Compound 1020, 3,3-difluoro-2-methylbutan-2-yl ((2R,6S,7S,9R,13aS,14aR,16aS,Z)-2-((2,7-dimethoxyquinolin-4-yl)oxy)-7-ethyl-9-methyl-14a-(((1-methylcyclopropyl)sulfonyl)carbamoyl)-5,16-dioxo-2,3,5,6,7,9,10,11,13a,14,14a,15,16,16a-tetradecahydro-1H-cyclopropa[i]pyrrolo[1,2-e][1,5,8]oxadiazacyclopentadecin-6-yl)carbamate]	0.51 to 1 nM	1.01 to 5 nM
COc1ccc2c(O[C@@H]3C[C@H]4C(=O)N[C@]5(C(=O)NS(=O)(=O)C6(C)CC6)C[C@H]5/C=C\CC[C@@H](C)O[C@@H](C)[C@H](NC(=O)OC(C)(C)C(F)(F)F)C(=O)N4C3)nccc2c1 [Compound 2002, 1,1,1-trifluoro-2-methylpropan-2-yl ((2R,6S,7S,9R,13aS,14aR,16aS,Z)-2-((6-methoxyisoquinolin-1-yl)oxy)-7,9-dimethyl-14a-(((1-methylcyclopropyl)sulfonyl)carbamoyl)-5,16-dioxo-2,3,5,6,7,9,10,11,13a,14,14a,15,16,16a-tetradecahydro-1H-cyclopropa[i]pyrrolo[1,2-e][1,5,8]oxadiazacyclopentadecin-6-yl)carbamate]	0.1 to 0.5 nM	0.51 to 1 nM
COc1cnc(O[C@@H]2C[C@H]3C(=O)N[C@]4(C(=O)NS(=O)(=O)C5(C)CC5)C[C@H]4/C=C\CC[C@@H](C)O[C@@H](C)[C@H](NC(=O)OC(C)(C)C(F)(F)F)C(=O)N3C2)c2ccccc12 [Compound 2003, 1,1,1-trifluoro-2-methylpropan-2-yl ((2R,6S,7S,9R,13aS,14aR,16aS,Z)-2-((4-methoxyisoquinolin-1-yl)oxy)-7,9-dimethyl-14a-(((1-methylcyclopropyl)sulfonyl)carbamoyl)-5,16-dioxo-2,3,5,6,7,9,10,11,13a,14,14a,15,16,16a-tetradecahydro-1H-cyclopropa[i]pyrrolo[1,2-e][1,5,8]oxadiazacyclopentadecin-6-yl)carbamate]	0.1 to 0.5 nM	0.51 to 1 nM
CCOc1cnc(O[C@@H]2C[C@H]3C(=O)N[C@]4(C(=O)NS(=O)(=O)C5(C)CC5)C[C@H]4/C=C\CC[C@@H](C)O[C@@H](C)[C@H](NC(=O)OC(C)(C)C(F)(F)F)C(=O)N3C2)c2ccccc12 [Compound 2004, 1,1,1-trifluoro-2-methylpropan-2-yl ((2R,6S,7S,9R,13aS,14aR,16aS,Z)-2-((4-ethoxyisoquinolin-1-yl)oxy)-7,9-dimethyl-14a-(((1-methylcyclopropyl)sulfonyl)carbamoyl)-5,16-dioxo-2,3,5,6,7,9,10,11,13a,14,14a,15,16,16a-tetradecahydro-1H-cyclopropa[i]pyrrolo[1,2-e][1,5,8]oxadiazacyclopentadecin-6-yl)carbamate]	0.1 to 0.5 nM	0.51 to 1 nM
